According to publication PMC3811095 (Chemical science (Royal Society of Chemistry : 2010), 2011):

Tests used:
MT-2 human T-cells = test: General cytotoxicity in MT-2 cells in the absence of virus
[1] = system: wild-type IIIB strain of HIV-1 in MT-2 human T-cells; test: Antiviral activity against HIV-1; type: cell-based; conditions: HIV-1 IIIB, MT-2 cells, multiplicity of infection 0.1; activity above background

O=C1Nc2ccc(Cl)cc2[C@@](C#CC2CC2)(C(F)(F)F)O1 [Efavirenz, reference compound]
general cytotoxicity (in words) (MT-2 human T-cells; same (low nanomolar) range of concentrations): no general cytotoxicity

C[C@H]1CCCC[C@H]2C(=O)C=C[C@H](O)[C@@H]2CC(=O)O1 [Sch-642305]
IC50 (MT-2 human T-cells; read-out: IC50 (general cytotoxicity), absence of virus, concentration at which 50 % of the cells are killed): 750 nM
protection of cells from cell death due to viral killing [1]: below 50%
